Data: patent publication US11806366B2, “Peptides and combination of peptides for use in immunotherapy against epithelial ovarian cancer and other cancers” (Immatics Biotechnologies GmbH, priority 2015, dated 2023)

Each substance was assayed on CD8 T cells from blood of healthy donors (assay: Immunogenicity analysis of HLA class I ligands: aAPC priming of CD8 T cells, MHC-multimer staining). Conditions: immunogenicity of MUC16/CA-125 ligands, HLA allotype as in Table 11.
Assay type: cell-based, human
Method: Priming of peptide specific cytotoxic lymphocytes (CTLs) was conducted using an established protocol involving artificial antigen presenting cells (aAPCs) (30). aAPCs consisted of streptavidin-coated polystyrene beads (5.6 μm in diameter; Bangs Laboratories, Fishers, Ind.). […] T cells were isolated from whole blood of healthy donors using a CD8 magnetic cell isolation kit (Miltenyi). One million T-cells per well were cultured in 96 well plates (Corning, Corning, N.Y., USA) and stimulated with the same number of loaded aAPCs in the presence of 5 ng/ml IL-12 (PromoCell, Heidelberg, Germany). T cells were stimulated 3 times in total with weekly stimulation interval. 40 U/ml IL-2 was added 2 days subsequent to each stimulation. T-cell priming was assessed by MHC-multimer staining one week after the last stimulation round.
For the applicability of peptide vaccines immunogenicity is a major imperative. In order to evaluate the immunogenic potential of the identified HLA ligands the inventors used a T-cell priming protocol involving artificial antigen presenting cells and T cells isolated from blood of healthy donors. […] This nearly 80% recognition rate verifies the presence of naïve MUC16 recognizing T cells in the human population. Similar results have been obtained for other TOP100 antigens (e.g. IDO1, LGALS1).
For “2 (STETSTVLY; listed as Homo sapiens) [compound 2]”, the positive/tested donors was 0/2.
In the case of “5 (AVTNVRTSI; listed as Homo sapiens) [compound 5]”, the positive/tested donors is reported as 1/3.
With “7 (DALVLKTV; listed as Homo sapiens) [compound 7]” the positive/tested donors was 1/3.
“8 (DPYKATSAV; listed as Homo sapiens) [compound 8]” was tested, and the positive/tested donors was 3/3.
With “10 (ERSPVIQTL; listed as Homo sapiens) [compound 10]” the positive/tested donors was 1/2.
In the case of “11 (ETILTFHAF; listed as Homo sapiens) [compound 11]”, the positive/tested donors is reported as 2/2.
For “12 (EVISSRGTSM; listed as Homo sapiens) [compound 12]”, the positive/tested donors was 1/3.
For “13 (EVITSSRTTI; listed as Homo sapiens) [compound 13]”, the positive/tested donors was 1/1.
For “14 (EVTSSGRTSI; listed as Homo sapiens) [compound 14]”, the positive/tested donors was 2/3.
In the case of “18 (FQRQGQTAL; listed as Homo sapiens) [compound 18]”, the positive/tested donors is reported as 1/6.
“23 (GTSGTPVSK; listed as Homo sapiens) [compound 23]” was tested, and the positive/tested donors was 0/5.
“34 (LPHSEITTL; listed as Homo sapiens) [compound 34]” was tested, and the positive/tested donors was 0/2.
In the case of “48 (SPHPVTALL; listed as Homo sapiens) [compound 48]”, the positive/tested donors is reported as 0/1.
With “50 (SPQNLRNTL; listed as Homo sapiens) [compound 50]” the positive/tested donors was 1/1.
In the case of “53 (SPSKAFASL; listed as Homo sapiens) [compound 53]”, the positive/tested donors is reported as 2/2.
In the case of “56 (SQGFSHSQM; listed as Homo sapiens) [compound 56]”, the positive/tested donors is reported as 4/5.
For “62 (STSQEIHSATK; listed as Homo sapiens) [compound 62]”, the positive/tested donors was 2/6.
With “63 (SVLADLVTTK; listed as Homo sapiens) [compound 63]” the positive/tested donors was 0/1.
With “72 (TPGNRAISL; listed as Homo sapiens) [compound 72]” the positive/tested donors was 2/2.
For “77 (VPRSAATTL; listed as Homo sapiens) [compound 77]”, the positive/tested donors was 1/2.
With “547 (IITEVITRL; listed as Homo sapiens) [compound 547]” the positive/tested donors was 3/10.
In the case of “548 (KMISAIPTL; listed as Homo sapiens) [compound 548]”, the positive/tested donors is reported as 4/6.
With “549 (TYSEKTTLF; listed as Homo sapiens) [compound 549]” the positive/tested donors was 2/2.
